Reference: the NIST ThermoML archive (doi:10.1021/je301164d)

Conditions: Fluid (supercritical or subcritical phases)

FC(C(F)(F)F)C(F)(F)F [1,1,1,2,3,3,3-heptafluoropropane]
Conditions	speed of sound [m/s]
280 K, 603.72 kPa	494.1
280 K, 1104.4 kPa	498.92
280 K, 1604.7 kPa	503.64
280 K, 2105 kPa	508.26
280 K, 3105.8 kPa	517.26
280 K, 4106.2 kPa	525.95
280 K, 5107.1 kPa	534.35
280 K, 6107.9 kPa	542.49
280 K, 7109.3 kPa	550.4
280 K, 8110 kPa	558.07
280 K, 9110.7 kPa	565.55
280 K, 10111 kPa	572.83
280 K, 12613 kPa	590.29
280 K, 15115 kPa	606.8
280 K, 17616 kPa	622.5
280 K, 20118 kPa	637.48
280 K, 35129 kPa	716.11
280 K, 40132 kPa	739.1
280 K, 45136 kPa	760.88
280 K, 50139 kPa	781.61
280.01 K, 25122 kPa	665.6
280.01 K, 30125 kPa	691.69
299.99 K, 1103 kPa	417.61
299.99 K, 1603.4 kPa	423.61
299.99 K, 2103.8 kPa	429.45
300 K, 3106.4 kPa	440.66
300 K, 4107.2 kPa	451.3
300 K, 5107.9 kPa	461.45
300 K, 6108.6 kPa	471.17
300 K, 7109.4 kPa	480.51
300 K, 8110.1 kPa	489.5
300 K, 9110.1 kPa	498.18
300 K, 10111 kPa	506.58
300 K, 12612 kPa	526.5
300 K, 15114 kPa	545.09
300 K, 17616 kPa	562.57
300 K, 20118 kPa	579.11
300 K, 25122 kPa	609.85
300 K, 30126 kPa	638.04
300 K, 35129 kPa	664.19
300 K, 40132 kPa	688.66
300 K, 45136 kPa	711.71
300 K, 50139 kPa	733.55
320 K, 1104.2 kPa	332.96
320 K, 2104.9 kPa	349.11
320 K, 3105.5 kPa	363.82
320 K, 4105.6 kPa	377.39
320 K, 5106.4 kPa	390.04
320 K, 6107.1 kPa	401.94
320 K, 7107.7 kPa	413.18
320 K, 8108.4 kPa	423.87
320 K, 9109 kPa	434.06
320 K, 10110 kPa	443.83
320 K, 12612 kPa	466.66
320 K, 15113 kPa	487.61
320 K, 17615 kPa	507.06
320 K, 20117 kPa	525.27
320 K, 25120 kPa	558.72
320 K, 30124 kPa	589.03
320 K, 35128 kPa	616.9
320 K, 40131 kPa	642.8
320 K, 45135 kPa	667.06
320.01 K, 50138 kPa	689.95
340 K, 1603.1 kPa	249.98
340 K, 2103.4 kPa	262.38
340 K, 3104.1 kPa	283.96
340 K, 4104.8 kPa	302.59
340 K, 5105.4 kPa	319.17
340 K, 6106 kPa	334.23
340 K, 7106.7 kPa	348.1
340 K, 8108.1 kPa	361.03
340 K, 9108.9 kPa	373.15
340 K, 10110 kPa	384.6
340 K, 12612 kPa	410.84
340 K, 15113 kPa	434.43
340 K, 17615 kPa	456
340 K, 20117 kPa	475.96
340 K, 25120 kPa	512.15
340 K, 30124 kPa	544.54
340 K, 35127 kPa	574.06
340 K, 40130 kPa	601.3
340 K, 45134 kPa	626.7
340 K, 50138 kPa	650.55
360 K, 3604.3 kPa	209.76
360 K, 4104.8 kPa	223.69
360 K, 5105.6 kPa	247.37
360 K, 6106.5 kPa	267.43
360 K, 7107.4 kPa	285.07
360.01 K, 8109.2 kPa	300.98
360.01 K, 9110 kPa	315.53
360.01 K, 10111 kPa	329.01
360.01 K, 12612 kPa	359.17
360.01 K, 15114 kPa	385.62
360.01 K, 17616 kPa	409.39
360.01 K, 20118 kPa	431.12
360.01 K, 25122 kPa	470
360.01 K, 30125 kPa	504.36
360.01 K, 35129 kPa	535.41
360.01 K, 40132 kPa	563.88
360.01 K, 45135 kPa	590.29
360.01 K, 50139 kPa	615
380 K, 7107.3 kPa	224.9
380 K, 8108.1 kPa	244.61
380 K, 9108.9 kPa	262.08
380 K, 10110 kPa	277.88
380 K, 11110 kPa	292.38
380 K, 12111 kPa	305.84
380 K, 13112 kPa	318.45
380 K, 14112 kPa	330.32
380 K, 15113 kPa	341.58
380 K, 17615 kPa	367.5
380 K, 20117 kPa	390.9
380 K, 22618 kPa	412.36
380 K, 25120 kPa	432.25
380 K, 30123 kPa	468.39
380 K, 35127 kPa	500.79
380 K, 40130 kPa	530.34
380 K, 45134 kPa	557.64
380 K, 50137 kPa	583.09
400 K, 10108 kPa	232.81
400 K, 11109 kPa	249.04
400 K, 12109 kPa	263.93
400 K, 13110 kPa	277.75
400 K, 14111 kPa	290.67
400 K, 15112 kPa	302.83
400 K, 16112 kPa	314.36
400 K, 17113 kPa	325.31
400 K, 18114 kPa	335.78
400 K, 19115 kPa	345.8
400 K, 20116 kPa	355.43
400 K, 22618 kPa	378.04
400 K, 25119 kPa	398.88
400 K, 27621 kPa	418.29
400 K, 30123 kPa	436.5
400 K, 35126 kPa	470.02
400 K, 40130 kPa	500.46
400 K, 45133 kPa	528.48
400 K, 50137 kPa	554.55
420 K, 12108 kPa	229.23
420 K, 13109 kPa	243.75
420 K, 14110 kPa	257.31
420 K, 15111 kPa	270.06
420 K, 16111 kPa	282.11
420 K, 17112 kPa	293.55
420 K, 18113 kPa	304.45
420 K, 19114 kPa	314.88
420 K, 20115 kPa	324.88
420 K, 22617 kPa	348.3
420 K, 25118 kPa	369.82
420 K, 27620 kPa	389.82
420 K, 30122 kPa	408.54
420 K, 35125 kPa	442.89
420 K, 40129 kPa	474.01
420 K, 45133 kPa	502.59
420 K, 50136 kPa	529.12
420 K, 55140 kPa	553.96
420 K, 60143 kPa	577.36
420 K, 70150 kPa	620.64
420 K, 80158 kPa	660.12
420 K, 90165 kPa	696.59
